Data reported in publication PMC6199309, “A therapeutic approach to pantothenate kinase associated neurodegeneration” (Nature Communications, 2018).

How the values were obtained:
MARK1 = target: T1, MARK1 (Homo sapiens, UniProt Q9P0L2); assay: KINOMEscan; format: binding; settings: read-out: %Ctrl @ 10000nM
T1 construct: purchased DiscoverX KINOMEscan

TNK2 = target: T2, TNK2 (Homo sapiens, UniProt Q07912); assay: KINOMEscan; format: binding; settings: read-out: %Ctrl @ 10000nM
T2 construct: purchased DiscoverX KINOMEscan

HPK1 = target: T3, HPK1 (Homo sapiens, UniProt Q92918); assay: KINOMEscan; format: binding; settings: read-out: %Ctrl @ 10000nM
T3 construct: purchased DiscoverX KINOMEscan

PRKX = target: T4, PRKX (Homo sapiens, UniProt P51817); assay: KINOMEscan; format: binding; settings: read-out: %Ctrl @ 10000nM
T4 construct: purchased DiscoverX KINOMEscan

CAMK2G = target: T5, CAMK2G (Homo sapiens, UniProt Q13555); assay: KINOMEscan; format: binding; settings: read-out: %Ctrl @ 10000nM
T5 construct: purchased DiscoverX KINOMEscan

[1] = target: T6, RSK2(Kin.Dom.1-N-terminal) (Homo sapiens, UniProt P51812); assay: KINOMEscan; format: binding; settings: read-out: %Ctrl @ 10000nM
T6 construct: RSK2(Kin.Dom.1-N-terminal); purchased DiscoverX KINOMEscan

YSK4 = target: T7, YSK4 (Homo sapiens, UniProt Q56UN5); assay: KINOMEscan; format: binding; settings: read-out: %Ctrl @ 10000nM
T7 construct: purchased DiscoverX scanMAX; host or cells: E. coli BL21-derived host (T7 phage) or HEK-293

PIK3CA(E545K) = target: T8, PIK3CA(E545K) (Homo sapiens, UniProt P42336, E545K); assay: KINOMEscan; format: binding; settings: read-out: %Ctrl @ 10000nM
T8 construct: purchased DiscoverX KINOMEscan

AURKC = target: T9, AURKC (Homo sapiens, UniProt Q9UQB9); assay: KINOMEscan; format: binding; settings: read-out: %Ctrl @ 10000nM
T9 construct: purchased DiscoverX KINOMEscan

VPS34 = target: T10, VPS34 (Homo sapiens, UniProt Q8NEB9); assay: KINOMEscan; format: binding; settings: read-out: %Ctrl @ 10000nM
T10 construct: DNA label for qPCR (T7 phage fusion or DNA tag); purchased DiscoverX scanMAX; host or cells: E. coli BL21-derived (T7 phage) or HEK-293

[2] = target: T11, ABL1(F317L)-phosphorylated (Homo sapiens, UniProt P00519, F317L); assay: KINOMEscan; format: binding; settings: read-out: %Ctrl @ 10000nM
T11 construct: purchased DiscoverX KINOMEscan

CAMK1B = target: T12, CAMK1B (Homo sapiens, UniProt Q6P2M8); assay: KINOMEscan; format: binding; settings: read-out: %Ctrl @ 10000nM
T12 construct: purchased DiscoverX KINOMEscan

CAMK1G = target: T13, CAMK1G (Homo sapiens, UniProt Q96NX5); assay: KINOMEscan; format: binding; settings: read-out: %Ctrl @ 10000nM
T13 construct: purchased DiscoverX KINOMEscan

PLK2 = target: T14, PLK2 (Homo sapiens, UniProt Q9NYY3); assay: KINOMEscan; format: binding; settings: read-out: %Ctrl @ 10000nM
T14 construct: purchased DiscoverX KINOMEscan

[3] = target: T15, ABL1(Q252H)-nonphosphorylated (Homo sapiens, UniProt P00519, Q252H); assay: KINOMEscan; format: binding; settings: read-out: %Ctrl @ 10000nM
T15 construct: purchased DiscoverX KINOMEscan

Plasma stability = format: in vitro ADME; settings: mouse, read-out: Plasma Stability T1/2
RAF1 = target: T16, RAF1 (Homo sapiens, UniProt P04049); assay: KINOMEscan; format: binding; settings: read-out: %Ctrl @ 10000nM
T16 construct: purchased DiscoverX KINOMEscan

CAMK2B = target: T17, CAMK2B (Homo sapiens, UniProt Q13554); assay: KINOMEscan; format: binding; settings: read-out: %Ctrl @ 10000nM
T17 construct: purchased DiscoverX KINOMEscan

ERBB2 = target: T18, ERBB2 (Homo sapiens, UniProt P04626); assay: KINOMEscan; format: binding; settings: read-out: %Ctrl @ 10000nM
T18 construct: purchased DiscoverX KINOMEscan

MAK = target: T19, MAK (Homo sapiens, UniProt P20794); assay: KINOMEscan; format: binding; settings: read-out: %Ctrl @ 10000nM
T19 construct: purchased DiscoverX KINOMEscan

PIK4CB = target: T20, PIK4CB (Homo sapiens, UniProt Q9UBF8); assay: KINOMEscan; format: binding; settings: read-out: %Ctrl @ 10000nM
T20 construct: purchased DiscoverX KINOMEscan

EGFR(G719S) = target: T21, EGFR(G719S) (Homo sapiens, UniProt P00533, G719S); assay: KINOMEscan; format: binding; settings: read-out: %Ctrl @ 10000nM
T21 construct: purchased DiscoverX KINOMEscan

EPHA4 = target: T22, EPHA4 (Homo sapiens, UniProt P54764); assay: KINOMEscan; format: binding; settings: read-out: %Ctrl @ 10000nM
T22 construct: purchased DiscoverX KINOMEscan

TAOK2 = target: T23, TAOK2 (Homo sapiens, UniProt Q9UL54); assay: KINOMEscan; format: binding; settings: read-out: %Ctrl @ 10000nM
T23 construct: purchased DiscoverX KINOMEscan

[4] = target: T24, ABL1(T315I)-nonphosphorylated (Homo sapiens, UniProt P00519, T315I); assay: KINOMEscan; format: binding; settings: read-out: %Ctrl @ 10000nM
T24 construct: purchased DiscoverX KINOMEscan

YANK1 = target: T25, YANK1 (Homo sapiens, UniProt Q8WU08); assay: KINOMEscan; format: binding; settings: read-out: %Ctrl @ 10000nM
T25 construct: DNA label for qPCR (T7 phage fusion or DNA tag); purchased DiscoverX scanMAX; host or cells: E. coli BL21-derived (T7 phage) or HEK-293

EPHB2 = target: T26, EPHB2 (Homo sapiens, UniProt P29323); assay: KINOMEscan; format: binding; settings: read-out: %Ctrl @ 10000nM
T26 construct: purchased DiscoverX KINOMEscan

BMPR1B = target: T27, BMPR1B (Homo sapiens, UniProt O00238); assay: KINOMEscan; format: binding; settings: read-out: %Ctrl @ 10000nM
T27 construct: purchased DiscoverX KINOMEscan

TAOK1 = target: T28, TAOK1 (Homo sapiens, UniProt Q7L7X3); assay: KINOMEscan; format: binding; settings: read-out: %Ctrl @ 10000nM
T28 construct: purchased DiscoverX KINOMEscan

ACVR1B = target: T29, ACVR1B (Homo sapiens, UniProt P36896); assay: KINOMEscan; format: binding; settings: read-out: %Ctrl @ 10000nM
T29 construct: purchased DiscoverX KINOMEscan

MUSK = target: T30, MUSK (Homo sapiens, UniProt O15146); assay: KINOMEscan; format: binding; settings: read-out: %Ctrl @ 10000nM
T30 construct: purchased DiscoverX KINOMEscan

EGFR(L861Q) = target: T31, EGFR(L861Q) (Homo sapiens, UniProt P00533, L861Q); assay: KINOMEscan; format: binding; settings: read-out: %Ctrl @ 10000nM
T31 construct: purchased DiscoverX KINOMEscan

EPHA3 = target: T32, EPHA3 (Homo sapiens, UniProt P29320); assay: KINOMEscan; format: binding; settings: read-out: %Ctrl @ 10000nM
T32 construct: purchased DiscoverX KINOMEscan

CDK3 = target: T33, CDK3 (Homo sapiens, UniProt Q00526); assay: KINOMEscan; format: binding; settings: read-out: %Ctrl @ 10000nM
T33 construct: purchased DiscoverX KINOMEscan

CDC2L2 = target: T34, CDC2L2 (Homo sapiens, UniProt Q9UQ88); assay: KINOMEscan; format: binding; settings: read-out: %Ctrl @ 10000nM
T34 construct: purchased DiscoverX KINOMEscan

MEK2 = target: T35, MEK2 (Homo sapiens, UniProt P36507); assay: KINOMEscan; format: binding; settings: read-out: %Ctrl @ 10000nM
T35 construct: purchased DiscoverX KINOMEscan

[5] = target: T36, ABL1(Y253F)-phosphorylated (Homo sapiens, UniProt P00519, Y253F); assay: KINOMEscan; format: binding; settings: read-out: %Ctrl @ 10000nM
T36 construct: purchased DiscoverX KINOMEscan

FGFR1 = target: T37, FGFR1 (Homo sapiens, UniProt P11362); assay: KINOMEscan; format: binding; settings: read-out: %Ctrl @ 10000nM
T37 construct: purchased DiscoverX KINOMEscan

PAK3 = target: T38, PAK3 (Homo sapiens, UniProt O75914); assay: KINOMEscan; format: binding; settings: read-out: %Ctrl @ 10000nM
T38 construct: purchased DiscoverX KINOMEscan

CDC2L1 = target: T39, CDC2L1 (Homo sapiens, UniProt P21127); assay: KINOMEscan; format: binding; settings: read-out: %Ctrl @ 10000nM
T39 construct: purchased DiscoverX KINOMEscan

TLK2 = target: T40, TLK2 (Homo sapiens, UniProt Q86UE8); assay: KINOMEscan; format: binding; settings: read-out: %Ctrl @ 10000nM
T40 construct: purchased DiscoverX KINOMEscan

T23 sequence (Q9UL54 whole entry): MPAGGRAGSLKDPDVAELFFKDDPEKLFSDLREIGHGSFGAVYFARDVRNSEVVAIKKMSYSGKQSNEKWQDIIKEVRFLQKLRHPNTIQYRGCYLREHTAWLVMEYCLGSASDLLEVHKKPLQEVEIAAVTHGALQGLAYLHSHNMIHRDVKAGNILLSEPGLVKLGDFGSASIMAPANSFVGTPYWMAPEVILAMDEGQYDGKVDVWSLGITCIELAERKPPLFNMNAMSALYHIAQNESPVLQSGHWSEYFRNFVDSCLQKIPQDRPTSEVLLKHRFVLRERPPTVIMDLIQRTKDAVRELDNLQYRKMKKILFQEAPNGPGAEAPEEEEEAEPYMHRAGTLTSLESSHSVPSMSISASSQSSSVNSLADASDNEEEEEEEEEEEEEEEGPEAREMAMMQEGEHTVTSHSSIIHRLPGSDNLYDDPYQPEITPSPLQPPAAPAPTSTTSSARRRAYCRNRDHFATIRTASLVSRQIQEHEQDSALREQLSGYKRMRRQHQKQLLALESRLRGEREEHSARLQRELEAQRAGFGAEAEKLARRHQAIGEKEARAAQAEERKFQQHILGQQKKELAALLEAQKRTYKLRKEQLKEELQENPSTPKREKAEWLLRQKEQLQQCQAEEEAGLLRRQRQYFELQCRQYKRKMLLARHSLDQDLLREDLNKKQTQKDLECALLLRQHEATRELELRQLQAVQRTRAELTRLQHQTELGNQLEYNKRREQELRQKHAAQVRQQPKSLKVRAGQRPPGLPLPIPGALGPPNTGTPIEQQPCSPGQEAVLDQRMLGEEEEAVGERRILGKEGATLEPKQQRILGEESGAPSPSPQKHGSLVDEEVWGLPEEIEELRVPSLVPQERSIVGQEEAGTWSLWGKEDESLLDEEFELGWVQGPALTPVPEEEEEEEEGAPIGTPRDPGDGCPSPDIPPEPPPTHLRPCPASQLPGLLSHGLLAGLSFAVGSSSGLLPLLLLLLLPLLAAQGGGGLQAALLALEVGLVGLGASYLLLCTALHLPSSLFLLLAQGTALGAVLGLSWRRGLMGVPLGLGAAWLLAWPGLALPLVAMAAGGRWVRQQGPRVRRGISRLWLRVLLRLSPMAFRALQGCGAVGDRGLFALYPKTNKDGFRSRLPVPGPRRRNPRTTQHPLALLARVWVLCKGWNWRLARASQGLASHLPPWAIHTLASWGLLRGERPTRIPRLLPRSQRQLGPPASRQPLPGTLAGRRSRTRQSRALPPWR
T27 sequence (O00238 14-502): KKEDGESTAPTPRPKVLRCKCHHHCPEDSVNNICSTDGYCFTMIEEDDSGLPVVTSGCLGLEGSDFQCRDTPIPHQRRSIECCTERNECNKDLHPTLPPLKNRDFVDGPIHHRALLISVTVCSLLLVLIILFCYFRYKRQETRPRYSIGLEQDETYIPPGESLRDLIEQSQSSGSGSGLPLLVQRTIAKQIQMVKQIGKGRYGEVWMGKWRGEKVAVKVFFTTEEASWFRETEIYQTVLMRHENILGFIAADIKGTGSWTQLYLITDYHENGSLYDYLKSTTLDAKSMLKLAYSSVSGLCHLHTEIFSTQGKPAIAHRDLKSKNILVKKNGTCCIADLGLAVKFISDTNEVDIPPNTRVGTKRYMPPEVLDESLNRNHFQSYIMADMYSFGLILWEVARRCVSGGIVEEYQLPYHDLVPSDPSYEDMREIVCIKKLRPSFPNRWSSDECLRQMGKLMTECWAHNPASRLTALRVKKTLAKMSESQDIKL
T17 sequence (Q13554 whole entry): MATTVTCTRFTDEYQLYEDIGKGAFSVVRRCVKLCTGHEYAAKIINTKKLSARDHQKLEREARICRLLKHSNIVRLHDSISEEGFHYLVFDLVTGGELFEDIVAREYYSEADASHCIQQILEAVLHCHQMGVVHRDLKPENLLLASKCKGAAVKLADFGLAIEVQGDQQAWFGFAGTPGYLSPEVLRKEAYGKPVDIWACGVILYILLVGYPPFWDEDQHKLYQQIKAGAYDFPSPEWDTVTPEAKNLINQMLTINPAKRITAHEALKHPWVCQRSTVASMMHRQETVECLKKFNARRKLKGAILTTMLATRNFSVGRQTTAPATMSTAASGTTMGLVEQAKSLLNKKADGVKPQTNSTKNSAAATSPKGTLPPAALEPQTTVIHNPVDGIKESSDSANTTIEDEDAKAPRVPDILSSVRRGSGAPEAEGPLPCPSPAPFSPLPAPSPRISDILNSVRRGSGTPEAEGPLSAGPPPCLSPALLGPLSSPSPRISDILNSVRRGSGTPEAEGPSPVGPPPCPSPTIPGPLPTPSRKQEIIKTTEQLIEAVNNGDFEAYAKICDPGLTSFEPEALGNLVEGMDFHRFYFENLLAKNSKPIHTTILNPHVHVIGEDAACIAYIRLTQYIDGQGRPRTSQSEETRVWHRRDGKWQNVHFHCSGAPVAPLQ
T34 sequence (Q9UQ88 whole entry): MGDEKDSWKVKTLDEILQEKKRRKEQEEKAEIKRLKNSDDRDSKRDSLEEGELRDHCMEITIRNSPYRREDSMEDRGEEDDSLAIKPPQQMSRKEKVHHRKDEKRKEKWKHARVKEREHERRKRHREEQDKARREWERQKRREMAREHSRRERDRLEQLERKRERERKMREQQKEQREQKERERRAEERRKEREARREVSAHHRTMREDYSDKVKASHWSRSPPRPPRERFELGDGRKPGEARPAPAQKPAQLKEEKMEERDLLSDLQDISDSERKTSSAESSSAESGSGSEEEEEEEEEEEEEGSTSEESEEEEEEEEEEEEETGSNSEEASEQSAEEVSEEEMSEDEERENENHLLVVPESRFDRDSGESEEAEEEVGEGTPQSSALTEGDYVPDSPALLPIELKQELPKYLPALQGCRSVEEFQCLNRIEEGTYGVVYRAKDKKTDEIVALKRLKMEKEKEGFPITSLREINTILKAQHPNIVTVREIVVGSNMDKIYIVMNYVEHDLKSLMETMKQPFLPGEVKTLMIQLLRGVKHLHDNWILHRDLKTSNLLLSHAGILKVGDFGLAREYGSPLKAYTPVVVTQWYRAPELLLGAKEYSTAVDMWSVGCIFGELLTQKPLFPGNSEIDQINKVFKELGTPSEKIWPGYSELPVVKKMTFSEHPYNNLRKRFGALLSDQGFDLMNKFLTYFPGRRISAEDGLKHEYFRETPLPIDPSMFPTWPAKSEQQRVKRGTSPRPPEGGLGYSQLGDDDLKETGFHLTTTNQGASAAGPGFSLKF
T12 sequence (Q6P2M8 whole entry): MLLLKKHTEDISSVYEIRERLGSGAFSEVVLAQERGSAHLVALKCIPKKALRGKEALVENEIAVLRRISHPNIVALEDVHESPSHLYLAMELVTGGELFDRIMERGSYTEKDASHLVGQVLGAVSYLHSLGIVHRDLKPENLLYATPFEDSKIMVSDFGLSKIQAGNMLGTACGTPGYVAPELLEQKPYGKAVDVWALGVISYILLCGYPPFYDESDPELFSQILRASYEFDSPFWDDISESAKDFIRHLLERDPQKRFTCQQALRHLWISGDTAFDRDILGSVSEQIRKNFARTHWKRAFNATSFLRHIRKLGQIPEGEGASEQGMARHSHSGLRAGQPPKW
T16 sequence (P04049 whole entry): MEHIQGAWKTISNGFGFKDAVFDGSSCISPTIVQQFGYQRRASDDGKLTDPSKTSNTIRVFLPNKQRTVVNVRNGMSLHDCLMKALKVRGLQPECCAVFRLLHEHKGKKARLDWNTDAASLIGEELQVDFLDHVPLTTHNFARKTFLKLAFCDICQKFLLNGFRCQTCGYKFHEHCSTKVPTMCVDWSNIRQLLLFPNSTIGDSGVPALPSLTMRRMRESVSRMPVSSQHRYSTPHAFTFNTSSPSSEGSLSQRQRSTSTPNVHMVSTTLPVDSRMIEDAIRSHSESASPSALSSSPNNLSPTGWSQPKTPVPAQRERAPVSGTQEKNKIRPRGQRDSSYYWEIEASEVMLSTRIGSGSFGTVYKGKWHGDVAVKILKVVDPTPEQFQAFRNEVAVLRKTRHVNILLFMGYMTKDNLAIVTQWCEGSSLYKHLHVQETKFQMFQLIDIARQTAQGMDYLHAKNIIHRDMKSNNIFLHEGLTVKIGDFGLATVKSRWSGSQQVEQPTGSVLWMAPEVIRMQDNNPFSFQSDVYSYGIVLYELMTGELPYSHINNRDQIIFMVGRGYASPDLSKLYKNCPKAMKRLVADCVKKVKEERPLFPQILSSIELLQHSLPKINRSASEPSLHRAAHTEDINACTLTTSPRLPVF
T25 sequence (Q8WU08 whole entry, the tested form may be a part): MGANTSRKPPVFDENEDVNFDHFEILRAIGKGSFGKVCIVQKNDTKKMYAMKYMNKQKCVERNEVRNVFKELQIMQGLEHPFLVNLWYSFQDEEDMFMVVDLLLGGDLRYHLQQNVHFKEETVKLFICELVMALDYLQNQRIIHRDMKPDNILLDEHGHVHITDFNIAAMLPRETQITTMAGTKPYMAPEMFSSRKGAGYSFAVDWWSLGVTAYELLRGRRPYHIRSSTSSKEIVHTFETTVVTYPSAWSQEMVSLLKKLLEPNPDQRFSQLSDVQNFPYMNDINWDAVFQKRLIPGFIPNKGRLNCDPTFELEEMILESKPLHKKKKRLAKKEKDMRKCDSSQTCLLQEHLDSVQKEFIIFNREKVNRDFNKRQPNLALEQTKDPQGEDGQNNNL
T9 sequence (Q9UQB9 whole entry): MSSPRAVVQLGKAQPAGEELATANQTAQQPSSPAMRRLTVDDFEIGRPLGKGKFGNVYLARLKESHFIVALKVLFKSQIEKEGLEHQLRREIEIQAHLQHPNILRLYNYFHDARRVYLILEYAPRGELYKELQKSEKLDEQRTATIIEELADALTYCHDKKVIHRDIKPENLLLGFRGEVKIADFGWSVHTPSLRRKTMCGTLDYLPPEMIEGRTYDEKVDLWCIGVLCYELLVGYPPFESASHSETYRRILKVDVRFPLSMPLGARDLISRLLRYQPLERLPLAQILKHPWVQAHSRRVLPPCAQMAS

CC(C)c1ccc(CC(=O)N2CCN(c3ccc(C#N)nn3)CC2)cc1 [PZ-2891, 6-(4-(2-(4-isopropylphenyl)acetyl)piperazin-1-yl)pyridazine-3-carbonitrile]
remaining binding at 10 µM (MARK1): 77% | remaining binding at 10 µM (TNK2): 98% | remaining binding at 10 µM (HPK1): 100% | remaining binding at 10 µM (PRKX): 70% | remaining binding at 10 µM (CAMK2G): 86% | remaining binding at 10 µM [1]: 80% | remaining binding at 10 µM (YSK4): 89% | remaining binding at 10 µM (PIK3CA(E545K)): 65% | remaining binding at 10 µM (AURKC): 94% | remaining binding at 10 µM (VPS34): 80% | remaining binding at 10 µM [2]: 100% | remaining binding at 10 µM (CAMK1B): 100% | remaining binding at 10 µM (CAMK1G): 83% | remaining binding at 10 µM (PLK2): 84% | remaining binding at 10 µM [3]: 97% | half-life (Plasma stability): > 50 h | remaining binding at 10 µM (RAF1): 85% | remaining binding at 10 µM (CAMK2B): 88% | remaining binding at 10 µM (ERBB2): 92% | remaining binding at 10 µM (MAK): 69% | remaining binding at 10 µM (PIK4CB): 84% | remaining binding at 10 µM (EGFR(G719S)): 91% | remaining binding at 10 µM (EPHA4): 93% | remaining binding at 10 µM (TAOK2): 99% | remaining binding at 10 µM [4]: 63% | remaining binding at 10 µM (YANK1): 74% | remaining binding at 10 µM (EPHB2): 82% | remaining binding at 10 µM (BMPR1B): 60% | remaining binding at 10 µM (TAOK1): 93% | remaining binding at 10 µM (ACVR1B): 97% | remaining binding at 10 µM (MUSK): 95% | remaining binding at 10 µM (EGFR(L861Q)): 100% | remaining binding at 10 µM (EPHA3): 65% | remaining binding at 10 µM (CDK3): 97% | remaining binding at 10 µM (CDC2L2): 87% | remaining binding at 10 µM (MEK2): 80% | remaining binding at 10 µM [5]: 82% | remaining binding at 10 µM (FGFR1): 87% | remaining binding at 10 µM (PAK3): 88% | remaining binding at 10 µM (CDC2L1): 95% | remaining binding at 10 µM (TLK2): 98%
